In US9708334B2, “Substituted 2,4,5,6-tetrahydropyrrolo[3,4-c]pyrazole and 4,5,6,7-tetrahydro-2H-pyrazolo[4,3-c]pyridine compounds as GlyT1 inhibitors” (DART NEUROSCIENCE (CAYMAN) LTD., priority 2014, dated 2017):

Molecular target: T1, GlyT1 (Homo sapiens, UniProt P48067)
T1 construct: expressed in transfected cells
T1 sequence (P48067 1-706): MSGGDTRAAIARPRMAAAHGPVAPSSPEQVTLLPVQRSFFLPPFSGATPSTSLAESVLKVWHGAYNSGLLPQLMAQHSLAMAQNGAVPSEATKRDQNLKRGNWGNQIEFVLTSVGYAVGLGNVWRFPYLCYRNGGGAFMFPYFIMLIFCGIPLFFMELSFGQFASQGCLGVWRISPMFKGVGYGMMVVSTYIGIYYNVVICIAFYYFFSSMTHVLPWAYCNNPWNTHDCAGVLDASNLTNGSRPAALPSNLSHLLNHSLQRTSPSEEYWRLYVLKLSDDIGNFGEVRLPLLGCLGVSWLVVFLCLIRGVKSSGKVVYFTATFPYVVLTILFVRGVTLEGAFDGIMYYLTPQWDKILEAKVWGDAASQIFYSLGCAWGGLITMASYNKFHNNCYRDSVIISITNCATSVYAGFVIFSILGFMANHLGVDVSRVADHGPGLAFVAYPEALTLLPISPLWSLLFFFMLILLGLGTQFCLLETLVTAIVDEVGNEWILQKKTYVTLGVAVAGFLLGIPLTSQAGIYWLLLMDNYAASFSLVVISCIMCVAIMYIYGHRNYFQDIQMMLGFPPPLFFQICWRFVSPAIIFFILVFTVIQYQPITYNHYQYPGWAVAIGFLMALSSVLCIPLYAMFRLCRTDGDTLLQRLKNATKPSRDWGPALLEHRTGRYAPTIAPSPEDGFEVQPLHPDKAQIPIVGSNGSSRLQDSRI
Assay: Glycine Transporter 1 (GlyT1) uptake assay, scintillation proximity assay of [14C]-glycine uptake
Format: cell-based
Conditions: SPA, four parameter logistic fit, read-out: GlyT1 (pIC50) (converted)
Method in brief: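 IC50 values derive from four-parameter logistic curves fitted to dose-response data. Uptake of [14C]-glycine measured in scintillation proximity format.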

IC50 | Structure (SMILES)
100 to 1000 nM | CC(C)(C)COc1ccc(S(C)(=O)=O)cc1C(=O)N1CCc2nn(-c3ccccc3)cc2C1 [Example 497, 5-[2-(2 2-Dimethylpropoxy)-5-methanesulfonylbenzoyl]-2-phenyl-2H 4H 5H 6H 7H-pyrazolo[4,3-c]pyridine]
100 to 1000 nM | C[C@H](Oc1ccc(C#N)cc1C(=O)N1Cc2cn(-c3ccc(C#N)nc3)nc2C1)C(F)(F)F [Example 465, 5-[5-(5-Cyano-2-{[(2S)-1 1 1-trifluoropropan-2-yl]oxy}benzoyl)-2H 4H 5H 6H-pyrrolo[3,4-c]pyrazol-2-yl]pyridine-2-carbonitrile]
< 100 nM | Cc1nc(-n2cc3c(n2)CN(C(=O)c2cc(S(C)(=O)=O)ccc2O[C@@H](C)C(F)(F)F)C3)ccc1F [Example 362, 3-Fluoro-6-[5-(5-methanesulfonyl-2-{[(2S)-1 1 1-trifluoropropan-2-yl]oxy}benzoyl)-2H 4H 5H 6H-pyrrolo[3,4-c]pyrazol-2-yl]-2-methylpyridine]
100 to 1000 nM | N#Cc1ccc(OCC2(C(F)(F)F)CC2)c(C(=O)N2CCc3nn(-c4ccc(F)cc4)cc3C2)c1Cl [Example 509, 2-Chloro-3-[2-(4-fluorophenyl)-2H 4H 5H 6H 7H-pyrazolo[4,3-c]pyridine-5-carbonyl]-4-{[1-(trifluoromethyl)cyclopropyl]methoxy}benzonitrile]
100 to 1000 nM | Cc1nc(-n2cc3c(n2)CN(C(=O)c2cc(C#N)ccc2O[C@@H](C)C(F)(F)F)C3)ccc1F [Example 345, 3-[2-(5-Fluoro-6-methylpyridin-2-yl)-2H 4H 5H 6H-pyrrolo[3,4-c]pyrazole-5-carbonyl]-4-{[(2S)-1 1 1-trifluoropropan-2-yl]oxy}benzonitrile]
< 100 nM | CC(C)Cn1cc2c(n1)CN(C(=O)c1cc(S(C)(=O)=O)ccc1-c1cccc(F)c1)C2 [Example 427, 5-[2-(3-Fluorophenyl)-5-methanesulfonylbenzoyl]-2-(2-methylpropyl)-2H 4H 5H 6H-pyrrolo[3,4-c]pyrazole]
100 to 1000 nM | CC(C)Oc1ccc(C#N)cc1C(=O)N1Cc2cn(CC3CC3)nc2C1 [Example 450, 3-[2-(Cyclopropylmethyl)-2H 4H 5H 6H-pyrrolo[3,4-c]pyrazole-5-carbonyl]-4-(propan-2-yloxy)benzonitrile]
100 to 1000 nM | CC(C)(Oc1ccc(C#N)cc1C(=O)N1Cc2cn(-c3ccc(F)cc3)nc2C1)C(F)(F)F [Example 532, 3-[2-(4-Fluorophenyl)-2H 4H 5H 6H-pyrrolo[3,4-c]pyrazole-5-carbonyl]-4-[(1 1 1-trifluoro-2-methylpropan-2-yl)oxy]benzonitrile]
< 100 nM | C[C@H](Oc1ccc(S(C)(=O)=O)cc1C(=O)N1Cc2cn(Cc3ccccc3)nc2C1)C(F)(F)F [Example 398, 2-Benzyl-5-(5-methanesulfonyl-2-{[(2S)-1 1 1-trifluoropropan-2-yl]oxy}benzoyl)-2H 4H 5H 6H-pyrrolo[3,4-c]pyrazole]
100 to 1000 nM | COc1c(C#N)ccc(OCC(F)F)c1C(=O)N1Cc2cn(-c3ccnc(C)c3)nc2C1 [Example 333, 4-(2 2-Difluoroethoxy)-2-methoxy-3-[2-(2-methylpyridin-4-yl)-2H 4H 5H 6H-pyrrolo[3,4-c]pyrazole-5-carbonyl]benzonitrile]
100 to 1000 nM | COc1c(C#N)ccc(O[C@@H](C)C(F)(F)F)c1C(=O)N1Cc2cn(-c3c(C)nn(C)c3C)nc2C1 [Example 306, 2-Methoxy-4-{[(2S)-1 1 1-trifluoropropan-2-yl]oxy}-3-[2-(trimethyl-1H-pyrazol-4-yl)-2H 4H 5H 6H-pyrrolo[3,4-c]pyrazole-5-carbonyl]benzonitrile]
< 100 nM | COc1c(C#N)ccc(OC(C)C(C)C)c1C(=O)N1Cc2cn(-c3ccc(F)cc3)nc2C1 (stereo not drawn) [Example 523, 3-[2-(4-Fluorophenyl)-2H 4H 5H 6H-pyrrolo[3,4-c]pyrazole-5-carbonyl]-2-methoxy-4-[(3-methylbutan-2-yl)oxy]benzonitrile]
100 to 1000 nM | CC(C)Oc1ccc(C#N)cc1C(=O)N1Cc2cn(-c3ccc(F)cn3)nc2C1 [Example 335, 3-[2-(5-Fluoropyridin-2-yl)-2H 4H 5H 6H-pyrrolo[3,4-c]pyrazole-5-carbonyl]-4-(propan-2-yloxy)benzonitrile]
100 to 1000 nM | CC(C)Oc1ccc(C#N)cc1C(=O)N1Cc2cn(CC3CCC3)nc2C1 [Example 411, 3-[2-(Cyclobutylmethyl)-2H 4H 5H 6H-pyrrolo[3,4-c]pyrazole-5-carbonyl]-4-(propan-2-yloxy)benzonitrile]

The next lines start with the compound.

Structure (SMILES) | IC50
COc1c(C#N)ccc(O[C@@H](C)C(F)(F)F)c1C(=O)N1CCc2nn(-c3ccnc(C(F)(F)F)c3)cc2C1 [Example 241, 2-Methoxy-3-{2-[2-(trifluoromethyl)pyridin-4-yl]-2H 4H 5H 6H 7H-pyrazolo[4,3-c]pyridine-5-carbonyl}-4-{[(2S)-1 1 1-trifluoropropan-2-yl]oxy}benzonitrile] | 100 to 1000 nM
Cc1ccc(F)c(-n2cc3c(n2)CN(C(=O)c2cc(S(C)(=O)=O)ccc2O[C@@H](C)C(F)(F)F)C3)c1 [Example 122, 2-(2-Fluoro-5-methylphenyl)-5-(5-methanesulfonyl-2-{[(2S)-1 1 1-trifluoropropan-2-yl]oxy}benzoyl)-2H 4H 5H 6H-pyrrolo[3,4-c]pyrazole] | < 100 nM
C[C@H](Oc1ccc(C#N)c(Cl)c1C(=O)N1CCc2nn(-c3ccncc3F)cc2C1)C(F)(F)F [Example 244, 2-Chloro-3-[2-(3-fluoropyridin-4-yl)-2H 4H 5H 6H 7H-pyrazolo[4,3-c]pyridine-5-carbonyl]-4-{[(2S)-1 1 1-trifluoropropan-2-yl]oxy}benzonitrile] | < 100 nM
CS(=O)(=O)c1ccc(OCC(F)(F)F)c(C(=O)N2Cc3cn(-c4ccccc4F)nc3C2)c1 [Example 104, 2-(2-Fluorophenyl)-5-[5-methanesulfonyl-2-(2 2 2-trifluoroethoxy)benzoyl]-2H 4H 5H 6H-pyrrolo[3,4-c]pyrazole] | < 100 nM
C[C@H](Oc1ccc(S(C)(=O)=O)cc1C(=O)N1Cc2cn(-c3ccc(F)c(F)c3)nc2C1)C(F)(F)F [Example 37, 2-(3 4-Difluorophenyl)-5-(5-methanesulfonyl-2-{[(2S)-1 1 1-trifluoropropan-2-yl]oxy}benzoyl)-2H 4H 5H 6H-pyrrolo[3,4-e]pyrazole] | < 100 nM
COc1c(C#N)ccc(O[C@@H](C)C(F)(F)F)c1C(=O)N1Cc2cn(-c3ccnc(C)c3)nc2C1 [Example 18, 2-Methoxy-3-[2-(2-methylpyridin-4-yl)-2H 4H 5H 6H-pyrrolo[3,4-c]pyrazole-5-carbonyl]-4-{[(2S)-1 1 1-trifluoropropan-2-yl]oxy}benzonitrile] | < 100 nM
N#Cc1ccc(OCC(F)(F)F)c(C(=O)N2CCc3nn(-c4ccc(F)cn4)cc3C2)c1Cl [Example 224, 2-Chloro-3-[2-(5-fluoropyridin-2-yl)-2H 4H 5H 6H 7H-pyrazolo[4,3-c]pyridine-5-carbonyl]-4-(2 2 2-trifluoroethoxy)benzonitrile] | 1000 to 10000 nM
COc1c(C#N)ccc(OC(C)C(F)(F)F)c1C(=O)N1CCc2nn(-c3ccc(F)cc3)cc2C1 (stereo not drawn) [Example 4, 3-(2-(4-Fluorophenyl)-4,5,6,7-tetrahydro-2H-pyrazolo[4,3-c]pyridine-5-carbonyl)-2-methoxy-4-((1,1,1-trifluoropropan-2-yl)oxy)benzonitrile] | 100 to 1000 nM
COc1c(C#N)ccc(O[C@@H](C)C(F)(F)F)c1C(=O)N1CCc2nn(-c3cccnc3)cc2C1 [Example 237, 2-Methoxy-3-[2-(pyridin-3-yl)-2H 4H 5H 6H 7H-pyrazolo[4,3-c]pyridine-5-carbonyl]-4-{[(2S)-1 1 1-trifluoropropan-2-yl]oxy}benzonitrile] | 100 to 1000 nM
CC(Oc1ccc(C#N)c(Cl)c1C(=O)N1CCc2c(cnn2C2CCCCC2)C1)C(F)(F)F (stereo not drawn) [Example 214, 2-Chloro-3-{1-cyclohexyl-1H 4H 5H 6H 7H-pyrazolo[4,3-c]pyridine-5-carbonyl}-4-[(1 1 1-trifluoropropan-2-yl)oxy]benzonitrile.] | 100 to 1000 nM
N#Cc1ccc(C2(F)COC2)c(C(=O)N2CCc3nn(-c4ccccc4)cc3C2)c1F [Example 178, 2-Fluoro-4-(3-fluorooxetan-3-yl)-3-{2-phenyl-2H 4H 5H 6H 7H-pyrazolo[4,3-c]pyridine-5-carbonyl}benzonitrile] | > 10000 nM
CCS(=O)(=O)c1ccc(O[C@@H](C)C(F)(F)F)c(C(=O)N2Cc3cn(-c4cc(C)ccc4F)nc3C2)c1 [Example 126, 5-[5-(Ethanesulfonyl)-2-{[(2S)-1 1 1-trifluoropropan-2-yl]oxy}benzoyl]-2-(2-fluoro-5-methylphenyl)-2H 4H 5H 6H-pyrrolo[3,4-c]pyrazole] | < 100 nM
Cc1cccc(-n2cc3c(n2)CN(C(=O)c2cc(S(=O)(=O)CC4CC4)ccc2O[C@@H](C)C(F)(F)F)C3)c1 [Example 145, 5-(5-Cyclopropylmethanesulfonyl-2-{[(2S)-1 1 1-trifluoropropan-2-yl]oxy}benzoyl)-2-(3-methylphenyl)-2H 4H 5H 6H-pyrrolo[3,4-c]pyrazole] | 1000 to 10000 nM
